Patent US20160263214A1, “CALCIUM FLUORIDE COMPOSITIONS” (GLAXOSMITHKLINE BIOLOGICALS S.A., priority 2013, published 2016)

Assay: Composite organic content by thermogravimetry
Assay type: physicochemical
Conditions: for Weight losses (single cell, temperature range not attributable): pure organic reference, one cell only; for Weight losses Between 0 and 200° C. under N2 / Weight losses Between 200 et 600° C. under N2 / Weight losses Between 600 et 800° C. under Air: thermogravimetry, dry material
Procedure: Dry material sample were submitted to thermogravimetry. Weight losses from RT to 600° C. under N2 and from 600° C. to 800° C. under O2 were recorded and represent by difference the quantity of burned organic material.

Weight losses (single cell, temperature range not attributable)	Weight losses Between 0 and 200° C. under N2	Weight losses Between 200 et 600° C. under N2	Weight losses Between 600 et 800° C. under Air	Structure (SMILES)
100%				O=C(O)CCCCC(=O)O [Adipic acid]
	0.2%	50.6%	49.2%	O=c1[nH]cnc2nc[nH]c12 [Hypoxanthine]
100%				Cc1c[nH]c(=O)[nH]c1=O [Thymine]
	0.1%	74.6%	25.3%	O=c1[nH]c(=O)c2[nH]c(=O)[nH]c2[nH]1 [Uric acid]
